In patent US20140275257A1, “N-ACETYL CYSTEINE COMPOSITIONS IN THE TREATMENT OF SYSTEMIC LUPUS ERYTHEMATOSUS” (Foundation for the State University of New York, priority 2013, published 2014):

Legend:
DN T cells = assay: Spontaneous and CD3/CD28-induced apoptosis of T cells (annexin V/PrI flow cytometry); assay type: in vivo, human; conditions: NAC-treated patients; for CD3/CD28-induced apoptosis: baseline 16.0±1.6%
Source text: Cell viability was monitored with annexin V conjugated to fluorescein isothiocyanate (annexin V-FITC conjugate), annexin V conjugated to phycoerythrin (annexin V-PE conjugate), or annexin V conjugated to fluorochrome Cy5 (Annexin V-Cy5 conjugate) matched with emission spectra of propidium iodide (PrI) to detect Annexin V+/PrI− apoptotic cells. Mitochondrial transmembrane potential (ΔΨm) was monitored with mitochondrial potentiometric dyes such as 3,3′-dihexyloxacarbocyanine iodide ((DiOC6), using an excitation wavelength of […] and emission at 488 nm, recorded at 525 nm in the FL-1 (green fluorescence) channel); and tetramethylrhodamine, methyl ester ((TMRM), using an excitation wavelength of […], and emission at 543 nm, recorded at 567 nm in the FL-2 (yellow/orange fluorescence) channel), potential-insensitive mitochondrial dyes such as MitoTracker Green-FM (MTG, 100 nM; excitation: 490 nm, emission: 516 nm recorded in FL-1) or nonyl acridine orange (NAO, 50 nM; excitation: 490 nm, emission: 540 nm recorded in FL-1), superoxide sensing hydroethidine (HE, 1 μM) and H2O2-sensing dichlorofluorescein diacetate (DCF-DA, 1 μM), nitric oxide sensor 4-amino-5-methylamino-2′,7′-difluoroflourescein diacetate (DAF-FM, 1 μM, excitation: 495, emission: 515 nm recorded in FL-1), or cytosolic probes (Fluo-3, 1 μM, excitation: 506 nm, emission: 526 nm recorded in FL-1) and mitochondrial Ca^2+-sensitive fluorescent probes (Rhod-2, 1 μM), respectively.
NO production (FIG. 3D: DAF-FM fluorescence), and mitochondrial mass were measured in T cell subsets following CD3/CD28 stimulation for 16 h (FIG. 3E: NAO fluorescence). FIG. 3F: Spontaneous apoptosis rate was enumerated by the percentage of Ann V+/PrI− T cells after culture for 16 h. FIG. 3G: Activation-induced apoptosis was assessed following CD3/CD28 co-stimulation for 16 h. Visits: visit 1, before 1st NAC dose; visit 2, after 1-month treatment; visit 3, after 2-month treatment; visit 4, after 3-month treatment; visit 5, after 1-month washout.
Unstimulated cells and cells stimulated with CD3/CD28 for 16 h were examined and cell death pathway selection in T cells was measured by concurrent staining with annexin V-Alexa 647 and propidium iodide (PrI) as well as cell type-specific antigens. T-cell subsets were analyzed by staining with antibodies to CD4, CD8, and CD25. B cells were identified by CD 19 staining

[1] = Noszal et al. (2000); cited from earlier work
SLE patients = assay: British Isles Lupus Assessment Group (BILAG) score in NAC pilot study; assay type: in vivo, human; conditions: for BILAG: all patients treated with NAC, baseline 26.2
Procedure: The BILAG index is more comprehensive than the SLEDAI, recording clinical disease activity in 8 different organ systems for a total of 101 items. Each item is measured qualitatively by clinical observation (yes/no, improving/same/worse/new) or quantitatively by measuring hematologic and renal lab values. […] Normally, a total score is not calculated. However, it can be converted into a disease activity scale by assigning points to the alphabetical score: A=9, B=3, C=1, D=0, E=0, with a maximum potential score of 72. (Lam, G. K. W. and Petri, M., “Assessment of systemic lupus erthematosus,” Clin. Exp. Rheumatol., 23 (Supp. 39): S120-S132 (2005)). The classical BILAG index was subsequently updated as the BILAG 2004 index. […] Development and initial validation of an updated version of the British Isles Lupus Assessment Group's disease activity index for patients with systemic lupus erythematosus,” Rheumatology, 44: 902-906 (2005). According to the BILAG 2004 index, all features must be attributable to SLE and refer to the last 4 weeks compared with the previous 4 weeks; in some manifestations, it may be difficult to differentiate SLE from other causes as there may not be any specific test and the decision would then lies with the physician's judgement on the balance of probabilities. The term “improvement” is defined as (a) the amount that is sufficient for consideration of reduction in therapy; and (b) that which is present ≧2 weeks of the previous 4 weeks. Scoring for features is indicated as: (0) not present; (1) Improving; (2) Same; (3) Worse; (4) New.
A complete physical examination of the cardiovascular, respiratory, gastrointestinal, musculoskeletal, neurological systems, skin, head, neck, sinuses, nasal and oral cavities were performed at each visit. SLE disease activity was assessed by using the British Isles Lupus Assessment Group (BILAG) (Isenberg, D. A. et al., “BILAG 2004. Development and initial validation of an updated version of the British Isles Lupus Assessment Group's disease activity index for patients with systemic lupus erythematosus,” Rheumatology 44(7): 902-906 (2005)) and SLE Disease Activity Index (SLEDAI) (Bombardier, C. et al., “Derivation of the SLEDAI. A disease activity index for lupus patients,” Arth. Rheum., 35: 630-640 (1992)). The concurrent use and dosage of prednisone and other medications were documented.
Lupus disease activity was measured by SLEDAI and BILAG and fatigue was evaluated by FAC at baseline (visit 1) as well as monthly during a 3-month intervention (visits 2-4) and after a 1-month washout period (visit 5).
Overall clinical effectiveness of NAC relative to placebo was analyzed with multilevel modeling as implemented in the STATA routine XTMIXED (from StataCorp, College Station, Tex.), with the three nested levels being drug group, subject within drug group and study visit within subject. All models included fixed effects for drug group, study visit and the drug group by study visit interaction along with random intercepts at each design level. […] The reduction in lupus disease activity SLEDAI scores was greater for the NAC than placebo group, as indicated by a significant visit by drug interaction (z=−2.14, p=0.033). The reduction in BILAG scores was also greater for NAC than placebo group. The overall effect was statistically significant as indicated by a significant visit by drug interaction (z=−2.62, p=0.009). Two tailed paired t-test was used to assess the effects of placebo and of each and all NAC doses on clinical indices and biomarkers recorded on visits 2-5 relative to visit 1; p<0.05 was considered significant. Patients and controls were compared with two-tailed unpaired t-test.

mTOR = mTOR (Homo sapiens, UniProt P42345); conditions: O'Loghlen et al. (2006); cited from earlier work

## CC(=O)N[C@@H](CS)C(=O)O [NAC, N-acetyl-L-cysteine]
DN T cells; after 2 months, p=0.0006
  CD3/CD28-induced apoptosis: 25.4±2.6%
DN T cells; after 3 months, p=0.0004
  CD3/CD28-induced apoptosis: 23.5±2.1%
DN T cells; after 4 months, baseline 10.1±1.3%, p=0.035
  Spontaneous apoptosis rate of DN T cells: 15.2±2.3%
DN T cells; after 4 months, p=0.0313
  CD3/CD28-induced apoptosis: 22.7±2.6%
[1]
  half-cell potential, NAC thiol/disulfide pair: about +63 mV
SLE patients; NAC dose 1 (1.2 g/day)
  effect on SLE disease activity, BILAG: did not influence
SLE patients; NAC dose 2 (2.4 g/day) and dose 3 (4.8 g/day), after 1 month (p=0.029) and 3 months (p=0.0009)
  effect on BILAG: reduced
SLE patients; NAC dosing group 3 (4.8 g/day), XTMIXED z=−2.19, p=0.029
  effect on BILAG (mixed model analysis): significant reduction
SLE patients; NAC groups, visit by drug interaction, XTMIXED z=−2.62, p=0.009
  reduction in BILAG relative to placebo (mixed model analysis): greater
SLE patients; after 3-month NAC treatment with dose 3, XTMIXED z=−2.0, p=0.046
  swollen joint count (BILAG component): reduced
SLE patients; after 3-month NAC treatment, all doses combined, XTMIXED z=−2.2, p=0.028
  swollen joint count (BILAG component): reduced
SLE patients; after 1 month (visit 2), p=0.0158
  BILAG: 22.3
SLE patients; after 2 months (visit 3), p=0.0223
  BILAG: 22.2
mTOR
  effect on mTOR in vitro: inhibits
